Test: Human HepG2 cell viability assay in 384 well format
Type: toxicity, cell-based
Parameters: dose 125 nL, time 70.5 hour; concentration not given beside the values
Details: HepG2 cells, read-out: Inhibition

Row | SMILES | cytotoxicity at 70.5 h [%]
1 | CN(C)CC(=O)N1CCN(c2cc(N3CCCC3CO)ncn2)CC1 (centres undefined) | -6.08
2 | CSc1nsc(NC(=O)N(C)Cc2ccc3c(c2)OCO3)n1 | -8.04
3 | COC(=O)c1ccc(CCn2cnc(C#N)n2)cc1 | 13.2
4 | Cc1cc(S(=O)(=O)N(CCO)C2CC2)ccc1F | -2.56
5 | CS(=O)(=O)CC1(CNc2c(C#N)cnc3ccc(Cl)cc23)CC1 | -5.19
6 | CN(C)CCC1CCN(c2cc(N3CCCC3CO)ncn2)CC1 (centres undefined) | 11.7
7 | CCC1COCCN1C(=O)NCc1nccn1CC(C)C (centres undefined) | -15.6
8 | CCC1COCCN1C(=O)NCc1nccn1CCc1ccccc1 (centres undefined) | -5.72
9 | O=C(NCc1nccs1)N1CCOC(c2ccccc2Cl)C1 (centres undefined) | 10.9
10 | CN(Cc1cccc(OC(F)(F)F)c1)Cc1cnn(C)c1 | -12.4
11 | Cc1cc(C2CCCN(CCC(=O)N3CCc4ccccc43)C2)n[nH]1 (centres undefined) | -4.23
12 | CC(C)N(Cc1ccccn1)C(=O)CCOc1cccc(F)c1 | -4.61
13 | CCc1ccc(CCn2cnc(C#N)n2)cc1 | -7.83
14 | CN(C)C(=O)N1CCN(c2cc(N3CCCC3CO)ncn2)CC1 (centres undefined) | -4.25
15 | CC(SCC(=O)N(C)CC(=O)NC1CC1)c1cc(F)ccc1F (centres undefined) | 14.2
16 | Cc1nc(CN(CCS(C)(=O)=O)C(C)(C)C)no1 | 42.5
17 | O=C(COCC1CC1)Nc1ncccc1I | 2.42
18 | CCOCCN1CCN(c2ccc(CN(C)C)cn2)CC1 | -5.47
19 | COc1ccc(C(NCc2cccc(C#N)c2)C(C)C)cc1 (centres undefined) | 5.48
20 | O=C(COCC1CC1)Nc1ncccc1O | -6.89
21 | CC1CCN(C(=O)C(C)N2CCN(c3nccs3)CC2)CC1 (centres undefined) | -7
22 | Cc1cc(CN(C)C(=O)C2CC(c3cccc(F)c3)=NO2)no1 (centres undefined) | -10.1
23 | O=C(Nc1ccc2c(c1)C(=O)NC2)c1ccc(S(=O)(=O)C(F)(F)F)cc1 | -2.46
24 | CCCNC(=O)C1CCN(CC(O)c2ccccc2C(F)(F)F)CC1 (centres undefined) | 0.668

Row | SMILES | cytotoxicity at 70.5 h [%]
25 | CCOc1ncccc1NC(=O)N1CCC(n2cncn2)CC1 | -8.07
26 | CS(=O)(=O)Nc1cccc(C(=O)Nc2ccc3c(c2)C(=O)NC3)c1 | -6.35
27 | CC(=O)NCc1ccc(C(=O)Nc2ccc3c(c2)C(=O)NC3)cc1 | -2.55
28 | O=C1C(n2nnc(-c3ccsc3)n2)CCN1CC(F)(F)F (centres undefined) | -11.5
29 | CCn1cc(S(=O)(=O)N2CCCC2c2ccc(C)o2)cn1 (centres undefined) | 2.79
30 | CC(c1ccc(-n2cncn2)cc1)N(C)Cc1ccccn1 (centres undefined) | -7.98
31 | COCCCn1ccc(NCc2ccc(NC(C)=O)cc2)n1 | -6.7
32 | CC(=O)Nc1ccc(CNc2ccn(Cc3ccccc3)n2)cc1 | -3.05
33 | CN(Cc1cccc(C#N)c1)C(=O)C1CC(c2cccc(F)c2)=NO1 (centres undefined) | -6.75
34 | CC(OCC1CC1)C(=O)Nc1ncccc1I (centres undefined) | -6.4
35 | Cc1cc(C)n(-c2ccc(C(=O)NCC(c3cccs3)N(C)C)cc2)n1 (centres undefined) | -4.5
36 | CCCN(CCC)C(=O)CN(C)Cc1cnc(C)s1 | 3.46
37 | Cc1nc(C)c(C(=O)N2CCN(CCOc3ccccc3C)CC2)o1 | -8.43
38 | CCCC(=O)N1CCCN(C(=O)c2oc(C)nc2C)CC1 | -4.74
39 | Cc1nc(CN(CCS(C)(=O)=O)C(C)C)no1 | -5.83
40 | Cc1cc(C(=O)NC2(c3ccc(Br)cc3)CC2)n(C)n1 | 6.63
41 | CC(=O)c1cc(C(=O)NC2(c3ccccc3)CCC2)n(C)c1 | -6.28
42 | Cc1cc(C)cc(OCCC(=O)NC2CC(=O)N(C)C2)c1 (centres undefined) | -0.646
43 | Cc1ncc(COc2ccc(N(C)S(C)(=O)=O)cc2)s1 | 3.82
44 | CCC(CC)CS(=O)(=O)NC(=O)C1CCCC1 | 26.6
45 | Cc1nc(C)c(COc2ccc(N(C)S(C)(=O)=O)cc2)s1 | 2.74
46 | NC(=O)c1ccc(CNC2CCCSC2)cc1 (centres undefined) | -1.72
47 | CS(=O)(=O)c1cccc(S(=O)(=O)NC(=O)CC2CCCCC2)c1 | -4.36
48 | CC(=O)Nc1cc(CN(C)C)ccc1C | -6.9

Row | SMILES | cytotoxicity at 70.5 h [%]
49 | CS(=O)(=O)c1cccc(S(=O)(=O)NC(=O)CC2CCCC2)c1 | -3.3
50 | O=C(Nc1ccccc1)c1ccc(NCc2ccncc2)nn1 | -5.4
51 | CN(c1ccc(OCc2cnc(Cl)s2)cc1)S(C)(=O)=O | 5.74
52 | CS(=O)(=O)c1cccc(S(=O)(=O)NC(=O)CCC2CCCCC2)c1 | -7.19
53 | CC1(CCNC(=O)NCc2ccsc2)OCCO1 | -6.29
54 | CCC(C)CS(=O)(=O)NC(=O)C1CCC1 (centres undefined) | 21.3
55 | FC(F)(F)c1cccc(C2(CNCc3cc[nH]c3)CCOCC2)c1 | -3.76
56 | CCC(CC)CS(=O)(=O)NC(=O)C1CCC1 | -4.87
57 | CC(=O)c1cccc(S(=O)(=O)N2CCC(c3n[nH]c(C)n3)CC2)c1 | 2.75
58 | OC1(CN2CCC(Cc3ccccc3)CC2)CCC1 | -4.49
59 | COc1cccc(S(=O)(=O)NC(=O)CC2CCCC2)c1 | -3.66
60 | Cc1cc(C)n(C2CN(CCc3ccccn3)C2)n1 | -11.1
61 | CCN(C(=O)CCOC)C(c1ccc(Cl)cc1)c1ccccn1 (centres undefined) | -6.55
62 | O=C(COc1ccccc1NCc1ccoc1)N1CCOCC1 | -18.1
63 | CCCn1nnnc1COc1ccc(C(=O)OC)cc1OC | -16.9
64 | Cc1nn(C)c2ncc(CN3CCN(c4ncccn4)CC3)cc12 | -21.9
65 | CCC(C)NS(=O)(=O)c1ccc(C(=O)NC2(C#N)CCC2)cc1 (centres undefined) | 39.3
66 | c1ccc(CCN2CC(n3cccn3)C2)nc1 | -15.6
67 | CC(C)C(C(=O)N1CCN(c2ccncc2)CC1)n1cncn1 (centres undefined) | -7.42
68 | CN(C(=O)c1cccc(C(=O)NCC(F)(F)F)c1)c1ccccc1 | 10.6
69 | Fc1ccc(CN2CCCC(Cn3cncn3)C2)c2ncccc12 (centres undefined) | -5.13
70 | CC(C)(C)c1ccc(C2(C(=O)NCCS(N)(=O)=O)CC2)cc1 | -9.31
71 | Cc1cc(CNC(=O)NC(C)c2ccc(N3CCOCC3)cc2)no1 (centres undefined) | -5.55
72 | Cc1ccc(C(C)NC(=O)Cc2c(C)nc3c(c2C)c(=O)[nH]n3C)o1 (centres undefined) | -4.59

Row | SMILES | cytotoxicity at 70.5 h [%]
73 | Cc1n[nH]cc1CNc1ccc2c(c1)N(C(=O)OC(C)(C)C)CCC2 | -5.44
74 | c1cnnc(N2CCCC(NCc3nc(C4CC4)no3)C2)c1 (centres undefined) | -1.23
75 | CN(Cc1cccc(F)c1)C(=O)CN1CCCCC1Cn1cncn1 (centres undefined) | -9.08
76 | CCN(Cc1nc(C(C)C)no1)Cc1cccs1 | -10.8
77 | CN(Cc1ccc(C#N)cc1)Cc1noc(C(C)(C)C)n1 | -10.4
78 | CCCS(=O)(=O)NCc1cccnc1OCC | -6.74
79 | CCc1nc(C2CCCN2Cc2nc(C3CC3)no2)no1 (centres undefined) | -5.95
80 | O=C(Cc1ccccc1F)N1CCN(C(=O)c2cccc(F)c2)CC1 | 38
81 | COc1ccc(CS(=O)(=O)CC(=O)NCc2ccccc2F)cc1F | -11.2
82 | O=C(COc1cccc2c1CCC2=O)NCc1ccccc1F | -2.34
83 | Cc1cc(NS(=O)(=O)c2ccccc2F)ccc1-n1cccc1C(=O)O | -1.31
84 | O=C(c1ccco1)N1CCCC1C1CCN(Cc2ccccc2)CC1 (centres undefined) | -5.08
85 | O=C(CN1CCC(C(=O)c2cc(F)ccc2F)CC1)NC1CCCC1 | 24.6
86 | CCCC(C)C(=O)NCc1cn2cc(Br)ccc2n1 (centres undefined) | -7.73
87 | COc1cccc(CNC(=O)C(c2cccc(F)c2)N2CCOCC2)c1 (centres undefined) | 10.7
88 | Cc1ccc(CN(C)C(=O)CN2CC(n3cccn3)C2)o1 | 23.5
89 | Cc1nc(NC(=O)CNC(=O)c2c(F)cccc2Cl)n[nH]1 | -6.51
90 | CN(C)c1cc(C(=O)NCCc2n[nH]c(=O)[nH]2)ccn1 | -5.07
91 | CNC(=O)Nc1cc(-c2ccc(Br)cc2)nn1CCO | -0.486
92 | Cn1cccc1CNC(=O)N(CCO)C1CCCc2ccccc21 (centres undefined) | 7.35
93 | O=C(Nc1nc2c(s1)CCC2)c1cccnc1N1CCOCC1 | -0.827
94 | COc1cc(C(=O)N(Cc2ccco2)C2CC2)cc2c1OCCO2 | -0.578
95 | O=C(NCC(O)c1ccc(F)c(F)c1)c1cccnc1O (centres undefined) | -3.92
96 | O=C(NCCCN1CCOCC1)c1cc(-c2ccco2)[nH]n1 | -11.6

Row | SMILES | cytotoxicity at 70.5 h [%]
97 | Cc1csc(CNC(=O)NC2CCN(c3ncccn3)CC2)n1 | -11.3
98 | O=C(Nc1nncs1)NC1CCOc2ccccc21 (centres undefined) | 3.46
99 | O=C(Nc1nncs1)NC1CCc2ccccc21 (centres undefined) | -8.87
100 | Cc1cc(-c2nnn(CCC(N)=O)n2)ccc1F | -9.65
101 | O=C(NC1CC1)c1cc(NC(=O)N2CCCC(O)C2)ccc1Cl (centres undefined) | -7.86
102 | Cc1nn(C(C)C)c(C)c1NC(=O)c1ccccc1 | -0.962
103 | O=C(NCC(O)c1ccc(F)c(F)c1)c1cccnc1OCC(F)(F)F (centres undefined) | -8.69
104 | O=C(CCNC(=O)c1ccccc1N1CCOCC1)NC1CCCC1 | -1.96
105 | O=C(CN(Cc1ccccc1)CC1CCOCC1)Nc1nccs1 | -0.217
106 | CC1Cc2ccccc2N1Cc1occc1C(=O)OCC(N)=O (centres undefined) | 2.01
107 | O=C(CN(Cc1ccccc1)CC1CCOCC1)NC(=O)NC1CC1 | 11.8
108 | Cc1ccoc1-c1nnc(CNCC2CCCN2c2cccnn2)o1 (centres undefined) | -4.49
109 | COc1cc(C)sc1C(=O)N1CCC(Nc2cccnc2)CC1 | -5.15
110 | CC(C)c1ccc(-c2nnn(CCNS(C)(=O)=O)n2)cc1 | 3.94
111 | Cc1noc(C)c1CNC(=O)N1CCC(C(O)c2ccccc2)CC1 (centres undefined) | -6
112 | CC(=O)c1c(F)cccc1N1CCC(Cc2cccnc2)CC1 | 9.22
113 | CC(C)Cc1noc(CN2CCN(C(=O)c3cccc(F)c3)CC2)n1 | -3.6
114 | CC(=O)c1c(F)cccc1N1CCC(CS(N)(=O)=O)CC1 | -10.5
115 | CN(Cc1nnc(C2CC2)n1C)C1CCN(Cc2ccccc2F)C1 (centres undefined) | -2.35
116 | CN(C(=O)Cc1ccc2c(c1)OCCO2)C1CCCC1 | 19.8
117 | CN(CCC#N)C(=O)CCOc1cccc(F)c1 | 13
118 | NC(=O)c1ccc(CNC2CC2)cc1 | 16
119 | FC(F)(F)c1cccc(-c2c[nH]c(C3CCCN3)n2)c1 (centres undefined) | 1.03

From ChEMBL document CHEMBL3507680, “University of Dundee, Gates Library screen for HepG2 cell viability”
